The nature of data set [1]: The compound was tested for neurologic toxicity (rotarod) test for 4 hours in mice; no activity or no toxicity at 300 mg/kg. Conditions: mouse, in vivo. Format: organism-based. The arrangement: dose 300 mg/kg.
The test system of data set [2] is Mus musculus. Briefly: The compound was tested for anticonvulsant activity in Maximal electroshock seizure test (MES) for 4 hr in mice(ip); no activity or toxicity at 300 mg/kg. Format: functional, organism-based. Further details: dose 300 mg/kg.
Data set [3] can be described thus: The compound was tested for neurologic toxicity (rotarod) test for 30 min in mice; no activity or no toxicity at 300 mg/kg. The arrangement: dose 300 mg/kg. Format: organism-based. The note with it: mouse, in vivo, 0.5 h.
The test system of data set [4] is Mus musculus. Briefly: The anticonvulsant activity in subcutaneous pentylenetetrazole seizure test (sc Met) for 4 hr in mice; no activity or no toxicity at 300 mg/kg. Format: functional, organism-based. Further details: dose 300 mg/kg.
For data set [5], the system named is Mus musculus. Description: The compound was tested for anticonvulsant activity in Maximal electroshock seizure test for 30 min in mice(ip); active at 300 mg/kg. The data set is classed as functional, organism-based. The arrangement: dose 300 mg/kg.
The subject of data set [6] is Mus musculus. Description: Anticonvulsant activity in subcutaneous pentylenetetrazole seizure test for 30 min in mice; No activity/toxicity at 300 mg/kg. Format: functional, organism-based. The arrangement: dose 300 mg/kg.
Data set [7] has as its system Rattus norvegicus. Description: The compound was tested for the effective oral dose to inhibit 50% of the anticonvulsant in rats. The data set is classed as functional.
Data set [8] deals with Mus musculus. Briefly: Inhibition of s.c. pentylenetetrazole induced seizure in mice following i.p. administration. Format: functional.
Data set [9] concerns Rattus norvegicus. Briefly: The compound was tested for the toxic dose on oral administration. Format: functional.
The species entered for data set [10] is Mus musculus. Briefly: Protective index value is the ratio between TD50 and ED50 values. The data set is classed as functional.
In data set [11] the test system is Mus musculus. Briefly: The compound was tested for anticonvulsant activity in subcutaneous pentylenetetrazole seizure test (sc Met) for 4 hr in mice; active at 300 mg/kg. The arrangement: dose 300 mg/kg. Format: functional, organism-based.
Data set [12] in a line: (§1) The compound was tested for neurologic toxicity (rotarod) test for 4 hours in mice; active at 300 mg/kg. The data set is classed as organism-based. Further details: dose 300 mg/kg. Conditions: mouse, in vivo.
The nature of data set [13]: The compound was determined for the dose (mg/kg) by rotarod test at the time of peak neurotoxic effect in mice on ip administration. Conditions: mouse, in vivo. Format: ADME, organism-based.
In data set [14] the test system is Mus musculus. Description: The compound was tested to inhibit 50% of induced maximal electroshock seizure in mice on ip administration. The data set is classed as functional.
Data set [15] in a line: (§2) The compound was tested for neurologic toxicity (rotarod) test for 30 min in mice; active at 100 mg/kg. The data set is classed as organism-based. The arrangement: dose 100 mg/kg. Conditions: mouse, in vivo, 0.5 h.
Data set [16] has as its system Mus musculus. Description: Time of peak effect in mice following i.p. administration. The data set is classed as functional.
Data set [17] relates to Mus musculus. Briefly: The compound was tested for anticonvulsant activity in Maximal electroshock seizure test (MES) for 4 hr in mice(ip); active at 100 mg/kg. Format: functional, organism-based. The arrangement: dose 100 mg/kg.
For data set [18], the species on record is Rattus norvegicus. Briefly: Protective index value is the ratio between ED50 and TD50. Format: functional.
Data set [19] has as its system Mus musculus. Briefly: The compound was tested for anticonvulsant activity in subcutaneous pentylenetetrazole seizure test (sc Met) for 30 min in mice; active at 300 mg/kg. Format: functional, organism-based. The arrangement: dose 300 mg/kg.
Data set [20] deals with Mus musculus. Description: Anticonvulsant activity in Maximal electroshock seizure test at 100 mg/kg i.p. in mice. The data set is classed as functional, organism-based. Further details: dose 100 mg/kg.
A short description of data set [21]: The compound was tested for time of peak effect (TPE) in hours for its toxicity in mice on ip administration. The data set is classed as organism-based. The note with it: mouse, in vivo.
For data set [22], the system named is Mus musculus. Described as §1. The data set is classed as functional, organism-based. Further details: dose 300 mg/kg.
For data set [23], the system named is Mus musculus. Described as §2. The data set is classed as functional, organism-based. The arrangement: dose 100 mg/kg.
In data set [24] the test system is Mus musculus. Description: The compound was tested for anticonvulsant activity in subcutaneous pentylenetetrazole seizure test (sc Met) for 30 min in mice; active at 100 mg/kg. Format: functional, organism-based. The arrangement: dose 100 mg/kg.
The subject of data set [25] is Mus musculus. Description: The compound was tested for anticonvulsant activity in Maximal electroshock seizure test (MES) for 4 hr in mice(ip); active at 300 mg/kg. Format: functional, organism-based. The arrangement: dose 300 mg/kg.
The subject of data set [26] is Mus musculus. Briefly: The compound was tested for anticonvulsant activity in Maximal electroshock seizure test for 30 min in mice(ip); active at 30 mg/kg. The arrangement: dose 30 mg/kg. Format: functional, organism-based.
Data set [27] can be described thus: The compound was tested for neurologic toxicity (rotarod) test for 30 min in mice; active at 30 mg/kg. Format: organism-based. Further details: dose 30 mg/kg. The note with it: mouse, in vivo, 0.5 h.
In data set [28] the test system is Rattus norvegicus. Briefly: The compound was tested for the effective oral dose to inhibit 50% of the anticonvulsant in rats. The data set is classed as functional.
Data set [29] has as its system Mus musculus. Briefly: The compound was tested to inhibit 50% of induced maximal electroshock seizure in mice on ip administration. Format: functional.

Several values for one entry are separate records, joined by “and”; a condition that tells them apart may be missing. Equal entries are not always repeated. Activity calls are given as the source filed them. The calls are words filed in the database; no cut-off is given here. Bounds are passed on as bounds.

The source of these data is ChEMBL document CHEMBL1131315, “Synthesis and anticonvulsant activity of 2(3H)-benzoxazolone and 2(3H)-benzothiazolone derivatives” (J Med Chem, 1998).

With `CCC(=O)c1ccc2nc(O)oc2c1`, the Rotarod toxicity entry in [1] and in data set [3] was “No activity or no toxicity at 300 mg/kg” in each case. Further, the MES entry in the data set on Mus musculus [2] and in the data set with Mus musculus [5] was “active at 300 mg/kg” each time. Further, the scMet result in the data set on Mus musculus [4] and in the data set with Mus musculus [6] was “No activity or no toxicity at 300 mg/kg” in each case.

For `CCCC(CCC)C(=O)O` [VALPROIC ACID], the 50% effective dose (ED50) in the data set on Rattus norvegicus [7] is 490 mg/kg; with Mus musculus [8], 149 mg/kg.

Turning to `CCCCCc1ccc2nc(O)sc2c1`, the ED50 with Rattus norvegicus [7] was 50.5 mg/kg; in the data set with Mus musculus [14] it was 58.9 mg/kg; in the data set on Mus musculus [8], 90.5 mg/kg. Besides, the TD50 in the data set on Rattus norvegicus [9] is greater than 120 mg/kg; in data set [13], 137 mg/kg. The PI was 2.3 and 1.5 in the data set filed under Mus musculus [10]; 2.4 in the data set listed under Rattus norvegicus [18]. Also, the scMet result in the data set with Mus musculus [11] and with Mus musculus [19] was “active at 300 mg/kg” each time. Besides, the Rotarod toxicity result in data set [12] and in data set [15] was “active at 100 mg/kg” each time. For the same compound, the Activity in the data set on Mus musculus [16] stood at 0.25 h. In addition, the MES result in the data set on Mus musculus [17] and in the data set with Mus musculus [20] was “active at 100 mg/kg” each time. In [21], this compound had a Toxicity of 0.5 h.

With `O=c1[nH]c2ccccc2s1`, the Rotarod toxicity entry with Mus musculus [22] and with Mus musculus [23] was “active at 100 mg/kg” each time. Also, the scMet result in the data set on Mus musculus [11] and in the data set on Mus musculus [24] was “active at 100 mg/kg” each time. Besides, the MES entry in the data set with Mus musculus [20] and in the data set on Mus musculus [25] was “active at 300 mg/kg” throughout.

Turning to `CCC(=O)c1ccc2c(c1)sc(=O)n2CCCN1CCCCC1`, the MES result in the data set with Mus musculus [26] and in the data set with Mus musculus [2] was “active at 30 mg/kg” each time. In addition, the Rotarod toxicity result in data set [1] and in data set [27] was “active at 30 mg/kg” throughout. The scMet result with Mus musculus [4] and in the data set with Mus musculus [6] was “No activity or no toxicity at 300 mg/kg” throughout.

Regarding `Oc1nc2ccc(Cc3ccc(F)cc3)cc2o1`, the TD50 with Rattus norvegicus [9] was greater than 220 mg/kg; in data set [13], 356 mg/kg. The PI is 2.8 and 1.6 in the data set filed under Mus musculus [10]; 18.5 in the data set filed under Rattus norvegicus [18]. Moreover, the scMet entry in the data set with Mus musculus [11] and in the data set on Mus musculus [24] was “active at 100 mg/kg” in each case. For the same compound, the Rotarod toxicity entry in data set [12] and in data set [15] was “active at 100 mg/kg” in each case. The compound further registered an Activity with Mus musculus [16] of 1 h. In addition, the figures for the 50% effective dose (ED50) in the data set on Mus musculus [8], in the data set on Rattus norvegicus [28] and with Mus musculus [29] were 218 mg/kg, 11.9 mg/kg and 125 mg/kg, respectively. The MES result in the data set with Mus musculus [17] and with Mus musculus [20] was “active at 100 mg/kg” each time. The same compound registered a Toxicity in data set [21] of 1 h.
